From ChEMBL document CHEMBL1129906, “Synthesis and binding affinity of new muscarinic ligands structurally related to oxotremorine” (Bioorg Med Chem Lett, 1997)

Assays:
[1] = biological target: T1, Muscarinic acetylcholine receptor M2 (Rattus norvegicus, UniProt P10980); test: Binding affinity against Muscarinic receptor M2 in rat brain using [3H]QNB (quinuclidinyl benzylate) radioligand at a concentration of 0.12 nM; format: tissue-based
T1 sequence (P10980 whole entry): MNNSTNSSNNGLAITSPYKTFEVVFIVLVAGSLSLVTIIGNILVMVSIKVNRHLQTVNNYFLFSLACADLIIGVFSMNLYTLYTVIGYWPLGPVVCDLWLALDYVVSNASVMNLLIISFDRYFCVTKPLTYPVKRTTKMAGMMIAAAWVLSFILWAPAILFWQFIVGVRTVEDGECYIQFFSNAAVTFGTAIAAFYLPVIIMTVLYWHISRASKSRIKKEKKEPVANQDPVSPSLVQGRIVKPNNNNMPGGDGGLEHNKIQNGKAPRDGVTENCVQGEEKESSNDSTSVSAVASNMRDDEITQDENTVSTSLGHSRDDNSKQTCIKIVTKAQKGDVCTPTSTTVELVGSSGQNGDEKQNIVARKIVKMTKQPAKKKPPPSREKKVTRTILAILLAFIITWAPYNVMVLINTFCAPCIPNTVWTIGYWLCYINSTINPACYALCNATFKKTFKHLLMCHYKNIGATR

[2] = biological target: T2, Muscarinic acetylcholine receptor M1 (Rattus norvegicus, UniProt P08482); test: Binding affinity against Muscarinic receptor M1 in rat brain using [3H]-PZ (pirenzepine) radioligand at a concentration of 1 nM; format: tissue-based
T2 sequence (P08482 whole entry): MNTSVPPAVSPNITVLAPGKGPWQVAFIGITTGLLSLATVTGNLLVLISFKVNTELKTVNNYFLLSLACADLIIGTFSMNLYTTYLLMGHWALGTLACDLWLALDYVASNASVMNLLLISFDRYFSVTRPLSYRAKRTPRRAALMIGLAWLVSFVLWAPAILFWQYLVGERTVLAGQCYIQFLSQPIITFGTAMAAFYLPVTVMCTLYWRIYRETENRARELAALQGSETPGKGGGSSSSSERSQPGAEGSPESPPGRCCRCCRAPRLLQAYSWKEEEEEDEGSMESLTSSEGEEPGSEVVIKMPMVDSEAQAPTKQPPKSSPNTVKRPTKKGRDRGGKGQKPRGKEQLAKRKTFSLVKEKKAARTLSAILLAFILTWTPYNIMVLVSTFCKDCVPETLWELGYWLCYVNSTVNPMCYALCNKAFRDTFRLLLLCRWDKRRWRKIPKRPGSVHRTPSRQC

[3] = biological target: T1, Muscarinic acetylcholine receptor M2; test: Muscarinic receptor M2 in rat heart using [3H]QNB (quinuclidinyl benzylate) radioligand as a M2 non-selective muscarinic receptor antagonist at a concentration of 0.12 nM
[4] = biological target: Muscarinic acetylcholine receptor; test: Compound was assessed for the binding affinity against muscarinic receptor subtypes in rat brain using [3H]OXO-M radioligand as a muscarinic receptor agonist at a concentration of 0.2 nM; format: tissue-based
[5] = Selectivity for was determined by the displacement of [3H]PZ in rat brain preparations; expressed as ratio of M1/M2; format: tissue-based

| Structure (SMILES) | IC50 [1] | IC50 [2] | IC50 [3] | IC50 [4] | Selectivity ratio [5] |
| --- | --- | --- | --- | --- | --- |
| CN(C)CC#CCN1OCCC1=O | 101000 nM | 7100 nM | 1380 nM | 23 nM | 41.2 |
| O=C1CCON1CC#CCN1CCCC1 | 2800 nM | 78 nM | 215 nM | 1.6 nM |  |
| O=C1CCCN1CC#CCN1CCCC1 [OXOTREMORINE] | 2000 nM | 100 nM | 84 nM | 2 nM |  |
| C(#CCN1CCCC1)COC1=NOCC1 | 8600 nM | 412 nM | 233 nM | 4 nM |  |
| C[N+](C)(C)CC#CCN1OCCC1=O | 17400 nM | 1300 nM | 74 nM | 0.8 nM | 140 |
